Experimental data published in patent US20230190871A1, “METHODS AND COMPOSITIONS FOR TREATMENT OF VIRAL INFECTIONS” (priority 2020, published 2023).
Where two headings read alike, the source gives them in different places.

How the values were obtained:
[1] = tested on: SARS CoV-2 (USA_WA1/2020); assay type: cell-based
Vero E6 cells = conditions: African green monkey; for Cell Health: cell death / Cell Health: cells death: 48 h
EGFP expression = experiment: doxycycline-induced EGFP reporter expression (microscopy / flow cytometry) in transduced Vero-E6 cells; assay type: cell-based
[2] = tested on: c19orf66 protein expression; experiment: doxycycline-induced c19orf66 protein expression by western blot in transduced Vero-E6 cells; assay type: cell-based; conditions: bulk sorted cells re-induced with 0, 0.8, 4, 20, 100 or 500 ng/mL

| Compound | number of infected cells (% infected cells) [1] | viral inhibition relative to remdesivir control [1] | Cell Health: cell death (Vero E6 cells; 10 ng/mL) | Cell Health: cell death (Vero E6 cells; 20 ng/mL) | Cell Health: cells death (Vero E6 cells; 50 ng/mL) | Cell Health: cells death (Vero E6 cells; 100 ng/mL) | Cell Health: doxycycline concentration at which cell death is observed (Vero E6 cells; 96 h) | EGFP: doxycycline concentration at which EGFP is visible (EGFP expression; Bulk Sorted, 48 hours) | EGFP: doxycycline concentration giving strong signal (EGFP expression; Bulk Sorted, 48 hours) | EGFP: doxycycline concentration at which EGFP is visible (EGFP expression; Bulk Sorted, 96 hours) | EGFP: doxycycline concentration at which EGFP is visible (EGFP expression; Clone 9, 48 hours) | EGFP: doxycycline concentration at which EGFP is visible (EGFP expression; Clone 9, 96 hours) | EGFP: doxycycline concentration at which EGFP is visible (EGFP expression; Clone 21, 48 hours) | EGFP: doxycycline concentration giving strong signal (EGFP expression; Clone 21, 48 hours) | EGFP: doxycycline concentration at which EGFP is visible (EGFP expression; Clone 21, 96 hours) | doxycycline concentration inducing c19orf66 (western blot) [2] |
| --- | --- | --- | --- | --- | --- | --- | --- | --- | --- | --- | --- | --- | --- | --- | --- | --- |
| C19orf66: Chromosome 19 Open Reading Frame 66 protein, interferon-stimulated gene; here expressed from a doxycycline-inducible lentiviral construct | reduction | comparable to remdesivir | – | – | – | – | – | – | – | – | – | – | – | – | – | – |
| C[C@H]1c2cccc(O)c2C(=O)C2=C(O)[C@]3(O)C(=O)C(C(N)=O)=C(O)[C@@H](N(C)C)[C@@H]3[C@@H](O)[C@@H]21 [doxycycline] | – | – | 50% cell death at 10 ng/mL and worse at higher concentrations. | 50% | 20% | 40% | 10 ng/mL | 10 ng/mL | 20 ng/mL | Visible at ≧ 10 ng/mL | Visible at 10 ng/mL and higher concentrations. | Visible at ≧ 10 ng/mL | 5 ng/mL | 10 ng/mL | Visible at ≧ 10 ng/mL | at least 20 ng/mL |
